Assay results published in US10017403B2, “Use of peracetic acid/hydrogen peroxide and peroxide-reducing enzymes for treatment of drilling fluids, frac fluids, flowback water and disposal water” (ECOLAB USA INC., priority 2012, dated 2018).

Columns and labels:
[1] = Catalase amount needed in POAA treated water, iodometric titration (Example 15); type: biochemical
Method: Field of use applications were analyzed to determine the amount of a peroxide-reducing enzyme necessary to obtain desired concentrations of both peracid and hydrogen peroxide in a treated water source. EnviroSan (POAA) peracid composition was added to water to reach the targeted POAA concentrations set forth in Table 18, and the concentration of both POAA and H2O2 were confirmed by iodometric titration. Then catalase (ES2000) was added to the solution, and the sample was stored under ambient conditions. The concentration of POAA and H2O2 were monitored by the iodometric conditions.

fracking water mixtures [2] = assay: Micro efficacy in fracking water mixtures, baseline without catalase (Example 3); type: cell-based
Method: The impact of water pretreatment with 500 ppm of the EnviroSan product (75 ppm POAA) on micro efficacy in various fracking water mixtures were evaluated. The example represents a baseline data set of various water treatment options according to the invention. Table 2 and FIG. 3 show the average log reduction in various slick water treatments with varying ppm PAA (without any catalase treatment or pretreatment), representing a baseline data set.

[3] = tested on: Pseudomonas aeruginosa ATCC 15442; assay: Micro efficacy at 30 ppm POAA with or without catalase, with or without water pretreatment (Example 7); type: cell-based; conditions: no holding tank pretreatment, 30 ppm PAA
Method: All water mixtures were treated with an initial concentration of 30 ppm POAA EnviroSan, both with and without the addition of catalase. The data set evaluates whether there is a significant difference in micro activity generated between treatments of EnviroSan alone vs. EnviroSan pre-reduced with catalase.
All ratios of fracking water mixtures tested (100/0, 90/10, 80/20 & 70/30) were freshly mixed solutions, as well as solutions mixed and pretreated with 500 ppm EnviroSan product more than 1 hour before the start of the micro evaluation, in order to observe if a pretreatment step is of value for micro performance compared to those mixtures not pretreated. The test system (P. aeruginosa and natural water) described in Example 5 was again utilized. Water mixtures as outlined in Table 9 were provided (showing the percentage of 100 mL of each water sample type).
The testing methods of Example 5 were utilized for the chemically treated water samples, differing only in the combination of the 10 mL inoculated water mixtures with appropriate volumes of the EnviroSan with or without catalase to achieve 30 ppm POAA residual to each test tube in timed intervals and mixed. The methods of Example 5 were employed to make the EnviroSan with catalase stock solutions. In comparison, for the water samples that were not chemically treated, 9.9 mL of test water mixture was dispensed into 2 individual test tubes. 0.10 mL of an approximate 10^8 CFU/mL culture of P. aeruginosa was added in timed intervals and mixed thoroughly. Then 1 mL samples were neutralized in 9 mL of 0.5% sodium thiosulfate, followed by serial dilution and enumeration after 2.5 minutes, 5 minutes and 60 minute exposure times.
Table 11C show the use of 30 ppm POAA with/without catalase treatment compared for micro performance at both 2.5 and 5.0 minutes exposure times. Upon addition of 10-30% reuse water a defined drop in antimicrobial performance was observed over both 2.5 and 5 minutes as peracid was rapidly consumed if not pretreated with catalase. A residual of 30 ppm POAA at 5 minutes was needed to achieve the desired antimicrobial performance.

[4] = Titration of POAA consumption in water mixtures (Example 6); type: physicochemical
fracking water mixtures [5] = assay: Micro efficacy: POAA dosed for 30 ppm residual versus POAA pretreated with catalase (Example 8); type: cell-based; conditions: no holding tank treatment
Method: A micro efficacy comparison of POAA added at levels to target 30 ppm POAA residuals at 5 minutes versus POAA pretreated with catalase was conducted as set forth in Table 12.

[6] = catalase 0.5 ppm, time 0 hr, series starting 14.6 ppm POAA, EnviroSan in water, ambient
[7] = catalase 0.5 ppm, time 0 hr, series starting 31.1 ppm POAA
[8] = catalase 0.5 ppm, time 1 hr, series starting 14.6 ppm POAA
[9] = catalase 0.5 ppm, time 1 hr, series starting 31.1 ppm POAA
[10] = catalase 0.5 ppm, time 2 hr, series starting 14.6 ppm POAA
[11] = catalase 0.5 ppm, time 2 hr, series starting 31.1 ppm POAA
[12] = catalase 0.5 ppm, time 3.6 hr, series starting 14.6 ppm POAA
[13] = catalase 0.5 ppm, time 3.6 hr, series starting 31.1 ppm POAA
[14] = catalase 1.0 ppm, time 0 hr, series starting 14.8 ppm POAA
[15] = catalase 1.0 ppm, time 0 hr, series starting 30.1 ppm POAA
[16] = catalase 1.0 ppm, time 1 hr, series starting 14.8 ppm POAA
[17] = catalase 1.0 ppm, time 1 hr, series starting 30.1 ppm POAA
[18] = catalase 1.0 ppm, time 2 hr, series starting 14.8 ppm POAA
[19] = catalase 1.0 ppm, time 2 hr, series starting 30.1 ppm POAA
[20] = catalase 1.0 ppm, time 3.6 hr, series starting 14.8 ppm POAA
[21] = catalase 1.0 ppm, time 3.6 hr, series starting 30.1 ppm POAA

With catalase the “catalase concentration sufficient for treating the water source” value ([1]; ambient conditions) was roughly 1 ppm, the “H2O2 (ppm)” value [1, 6] was 12.0 ppm and the “POAA (ppm)” value [1, 6] was 14.6 ppm. The “H2O2 (ppm)” value [1, 7] was 22.8 ppm, the “POAA (ppm)” value [1, 7] was 31.1 ppm and the “H2O2 (ppm)” value [1, 8] was 7.5 ppm. For the same compound, the “POAA (ppm)” value [1, 8] was 15.0 ppm, the “H2O2 (ppm)” value [1, 9] was 12.2 ppm and the “POAA (ppm)” value [1, 9] was 32.0 ppm. The “H2O2 (ppm)” value [1, 10] was 6.5 ppm, the “POAA (ppm)” value [1, 10] was 14.3 ppm and the “H2O2 (ppm)” value [1, 11] was 7.8 ppm. The “POAA (ppm)” value [1, 11] was 29.2 ppm, the “H2O2 (ppm)” value [1, 12] was 1.8 ppm and the “POAA (ppm)” value [1, 12] was 14.2 ppm. The “H2O2 (ppm)” value [1, 13] was 3.4 ppm, the “POAA (ppm)” value [1, 13] was 30.6 ppm and the “H2O2 (ppm)” value [1, 14] was 12.6 ppm. For the same compound, the “POAA (ppm)” value [1, 14] was 14.8 ppm, the “H2O2 (ppm)” value [1, 15] was 23.3 ppm and the “POAA (ppm)” value [1, 15] was 30.1 ppm. For the same compound, the “H2O2 (ppm)” value [1, 16] was 3.7 ppm, the “POAA (ppm)” value [1, 16] was 14.6 ppm and the “H2O2 (ppm)” value [1, 17] was 7.6 ppm. The “POAA (ppm)” value [1, 17] was 31.0 ppm, the “H2O2 (ppm)” value [1, 18] was 1.1 ppm and the “POAA (ppm)” value [1, 18] was 14.2 ppm. For the same compound, the “H2O2 (ppm)” value [1, 19] was 2.3 ppm, the “POAA (ppm)” value [1, 19] was 29.6 ppm and the “H2O2 (ppm)” value [1, 20] was 0.4 ppm. The “POAA (ppm)” value [1, 20] was 15.9 ppm, the “H2O2 (ppm)” value [1, 21] was 0.0 ppm and the “POAA (ppm)” value [1, 21] was 29.3 ppm. The “selectivity of catalase for H2O2 over POAA” value ([1]; tested ambient conditions) was “selectively decomposes the H2O2 without having any negative impact on POAA stability” and the “lowest catalase concentration with which pond water with POAA and H2O2 could be treated” value ([1]; within 4 hours, ambient conditions) was 0.5 ppm.
With CC(=O)OO [POAA, peracetic acid] the “Avg. Log10 Reduction” value (fracking water mixtures [2]; 75 ppm PAA holding tank pretreatment, 10% reuse H2O, 29 ppm POAA, no catalase, 2.5 minutes) was 6.45 Log10, the “Avg. Log10 Reduction” value (fracking water mixtures [2]; 75 ppm PAA holding tank pretreatment, 10% reuse H2O, 29 ppm POAA, no catalase, 5 minutes) was 6.71 Log10 and the “Avg. Log10 Reduction” value (fracking water mixtures [2]; 75 ppm PAA holding tank pretreatment, 20% reuse H2O, 47 ppm PAA, no catalase, 2.5 minutes) was 6.42 Log10. For the same compound, the “Avg. Log10 Reduction” value (fracking water mixtures [2]; 75 ppm PAA holding tank pretreatment, 20% reuse H2O, 47 ppm PAA, no catalase, 5 minutes) was 6.55 Log10, the “Avg. Log10 Reduction” value (fracking water mixtures [2]; 75 ppm PAA holding tank pretreatment, 30% reuse H2O, 86 ppm POAA, no catalase, 2.5 minutes) was 6.47 Log10 and the “Avg. Log10 Reduction” value (fracking water mixtures [2]; 75 ppm PAA holding tank pretreatment, 30% reuse H2O, 86 ppm POAA, no catalase, 5 minutes) was 6.41 Log10. For the same compound, the “Avg. Log10 Reduction” value (fracking water mixtures [2]; no holding tank pretreatment, 0% reuse H2O, 22 ppm POAA, 2.5 minutes) was 5.53 Log10, the “Avg. Log10 Reduction” value (fracking water mixtures [2]; no holding tank pretreatment, 0% reuse H2O, 22 ppm POAA, 5 minutes) was 5.75 Log10 and the “Avg. Log10 Reduction” value (fracking water mixtures [2]; no holding tank pretreatment, 10% reuse H2O, 36 ppm POAA, 2.5 minutes) was 4.32 Log10. The “Avg. Log10 Reduction” value (fracking water mixtures [2]; no holding tank pretreatment, 10% reuse H2O, 36 ppm POAA, 5 minutes) was 4.72 Log10, the “Avg. Log10 Reduction” value (fracking water mixtures [2]; no holding tank pretreatment, 20% reuse H2O, 86 ppm POAA, 2.5 minutes) was 4.57 Log10 and the “Avg. Log10 Reduction” value (fracking water mixtures [2]; no holding tank pretreatment, 20% reuse H2O, 86 ppm POAA, 5 minutes) was 4.64 Log10. The “Avg. Log10 Reduction” value (fracking water mixtures [2]; no holding tank pretreatment, 30% reuse H2O, 138 ppm POAA, 2.5 minutes) was 4.12 Log10, the “Avg. Log10 Reduction” value (fracking water mixtures [2]; no holding tank pretreatment, 30% reuse H2O, 138 ppm POAA, 5 minutes) was 5.00 Log10 and the “Avg. Log10 Reduction” value ([3]; 0% reuse H2O, 2.5 minutes) was 4.64 Log10. For the same compound, the “Avg. Log10 Reduction” value ([3]; 0% reuse H2O, 5 minutes) was 6.32 Log10, the “Avg. Log10 Reduction” value ([3]; 10% reuse H2O, 2.5 minutes) was 3.09 Log10 and the “Avg. Log10 Reduction” value ([3]; 10% reuse H2O, 5 minutes) was 3.91 Log10. For the same compound, the “Avg. Log10 Reduction” value ([3]; 20% reuse H2O, 2.5 minutes) was 2.19 Log10, the “Avg. Log10 Reduction” value ([3]; 20% reuse H2O, 5 minutes) was 2.38 Log10 and the “Avg. Log10 Reduction” value ([3]; 30% reuse H2O, 2.5 minutes) was 1.88 Log10. The “Avg. Log10 Reduction” value ([3]; 30% reuse H2O, 5 minutes) was 1.93 Log10, the “Actual Titrated Concentration (ppm POAA)” value ([4]; 70% Fresh/30% Produced, desired 30 ppm POAA, 1 minutes) was 7 ppm and the “Actual Titrated Concentration (ppm POAA)” value ([4]; 70% Fresh/30% Produced, desired 30 ppm POAA, 5 minutes) was 0 ppm. The “Actual Titrated Concentration (ppm POAA)” value ([4]; 70% Fresh/30% Produced, desired 40 ppm POAA, 1 minutes) was 12 ppm, the “Actual Titrated Concentration (ppm POAA)” value ([4]; 70% Fresh/30% Produced, desired 40 ppm POAA, 5 minutes) was 0 ppm and the “Actual Titrated Concentration (ppm POAA)” value ([4]; 80% Fresh/20% Produced, desired 30 ppm POAA, 1 minutes) was 13 ppm. The “Actual Titrated Concentration (ppm POAA)” value ([4]; 80% Fresh/20% Produced, desired 30 ppm POAA, 5 minutes) was 0 ppm, the “Actual Titrated Concentration (ppm POAA)” value ([4]; 80% Fresh/20% Produced, desired 40 ppm POAA, 1 minutes) was 21 ppm and the “Actual Titrated Concentration (ppm POAA)” value ([4]; 80% Fresh/20% Produced, desired 40 ppm POAA, 5 minutes) was 2 ppm. The “Actual Titrated Concentration (ppm POAA)” value ([4]; 90% Fresh/10% Produced, desired 30 ppm POAA, 1 minutes) was 21 ppm, the “Actual Titrated Concentration (ppm POAA)” value ([4]; 90% Fresh/10% Produced, desired 30 ppm POAA, 5 minutes) was 8 ppm and the “Actual Titrated Concentration (ppm POAA)” value ([4]; 90% Fresh/10% Produced, desired 40 ppm POAA, 1 minutes) was 30 ppm. For the same compound, the “Actual Titrated Concentration (ppm POAA)” value ([4]; 90% Fresh/10% Produced, desired 40 ppm POAA, 5 minutes) was 16 ppm, the “Avg. Log10 Reduction” value (fracking water mixtures [5]; 10% reuse H2O, 46 ppm PAA, 2.5 minutes) was 4.32 Log10 and the “Avg. Log10 Reduction” value (fracking water mixtures [5]; 10% reuse H2O, 46 ppm PAA, 5 minutes) was 4.72 Log10. The “Avg. Log10 Reduction” value (fracking water mixtures [5]; 20% reuse H2O, 86 ppm PAA, 2.5 minutes) was 4.57 Log10, the “Avg. Log10 Reduction” value (fracking water mixtures [5]; 20% reuse H2O, 86 ppm PAA, 5 minutes) was 4.64 Log10 and the “Avg. Log10 Reduction” value (fracking water mixtures [5]; 30% reuse H2O, 138 ppm PAA, 2.5 minutes) was 4.12 Log10. For the same compound, the “Avg. Log10 Reduction” value (fracking water mixtures [5]; 30% reuse H2O, 138 ppm PAA, 5 minutes) was 5.00 Log10.
